Results from patent US9751888B2, “Heterocyclic compounds and uses thereof” (Infinity Pharmaceuticals, Inc., priority 2013, dated 2017).

Legend:
[1] = target: human Class I PI3 kinase β (Homo sapiens (Human), UniProt P42338); test: PI3-Kinase Promega ADP-Glo Max assay, β isoform; assay type: biochemical; settings: 40 nM kinase, 3 mM ATP, 500 uM diC8-PtdInsP; read-out: Promega β PI3K IC50
[2] = target: p110 δ (RAJI cells) (Homo sapiens (Human), UniProt O00329); test: PI3K-δ selective cellular assay: phospho-AKT in anti-human IgM stimulated RAJI cells; assay type: cell-based; settings: serum-starved RAJI cells stimulated with anti-human IgM
Source text: A compound's ability in selectively inhibiting PI3K-δ can be assessed using RAJI cells, i.e., B lymphocyte cells derived from lymphoma patients. Briefly, serum-starved RAJI cells are stimulated with anti-human IgM, thereby causing signaling through the B-cell receptors, as described in, for example, He et al., Leukemia Research (2009) 33: 798-802. B-cell receptor signaling is important for the activation, differentiation, and survival of B cells and certain B-cell derived cancers. Reduction of phospho-AKT is indicative of compounds that may inhibit B-cell proliferation and function in certain diseases. […] Certain compounds provided herein were tested in RAJI cell model using procedures as described above.

[3] = target: human Class I PI3 kinase δ (Homo sapiens (Human), UniProt O00329); test: PI3-Kinase Promega ADP-Glo Max assay, δ isoform; assay type: biochemical; settings: 20 nM kinase, 3 mM ATP, 500 uM diC8-PtdInsP; read-out: Promega δ PI3K IC50
[4] = target: p110 γ (RAW264.7 cells) (Mus musculus (Mouse), UniProt Q9JHG7); test: PI3K-γ selective cellular assay: phospho-AKT in C5a stimulated RAW264.7 macrophages; assay type: cell-based; settings: serum-starved RAW264.7 cells stimulated with C5a
Sequence of p110 γ (RAW264.7 cells) (Q9JHG7 whole entry): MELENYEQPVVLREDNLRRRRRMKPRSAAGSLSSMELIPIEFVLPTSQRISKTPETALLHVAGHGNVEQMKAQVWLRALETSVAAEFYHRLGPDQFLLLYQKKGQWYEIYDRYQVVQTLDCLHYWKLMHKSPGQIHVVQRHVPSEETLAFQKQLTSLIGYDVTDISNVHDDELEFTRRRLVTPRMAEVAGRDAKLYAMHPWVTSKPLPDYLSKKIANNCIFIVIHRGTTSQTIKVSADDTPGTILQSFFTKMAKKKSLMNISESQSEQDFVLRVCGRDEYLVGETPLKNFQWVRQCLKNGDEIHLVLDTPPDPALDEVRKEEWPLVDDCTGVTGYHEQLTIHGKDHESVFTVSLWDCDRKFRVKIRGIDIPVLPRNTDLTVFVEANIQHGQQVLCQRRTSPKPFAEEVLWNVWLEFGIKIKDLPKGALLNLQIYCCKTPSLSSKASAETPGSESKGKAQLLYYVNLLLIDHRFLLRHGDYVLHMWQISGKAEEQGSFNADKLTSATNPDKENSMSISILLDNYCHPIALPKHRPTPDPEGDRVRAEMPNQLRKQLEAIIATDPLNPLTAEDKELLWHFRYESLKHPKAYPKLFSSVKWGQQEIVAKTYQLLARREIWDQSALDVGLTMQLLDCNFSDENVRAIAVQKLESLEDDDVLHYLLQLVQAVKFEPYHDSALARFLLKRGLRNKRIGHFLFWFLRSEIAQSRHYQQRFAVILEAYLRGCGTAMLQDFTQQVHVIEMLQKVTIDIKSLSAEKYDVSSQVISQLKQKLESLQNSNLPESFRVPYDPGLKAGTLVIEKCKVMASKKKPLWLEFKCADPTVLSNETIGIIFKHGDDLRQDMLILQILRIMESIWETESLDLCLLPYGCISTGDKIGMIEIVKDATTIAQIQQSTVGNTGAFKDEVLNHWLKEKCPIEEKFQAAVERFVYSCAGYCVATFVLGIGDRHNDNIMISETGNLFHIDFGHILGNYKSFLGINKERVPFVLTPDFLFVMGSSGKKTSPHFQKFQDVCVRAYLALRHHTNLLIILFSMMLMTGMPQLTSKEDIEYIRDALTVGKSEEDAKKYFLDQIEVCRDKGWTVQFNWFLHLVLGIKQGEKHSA
Protocol: Certain compounds provided herein were tested in RAW 264.7 cell model using procedures as described above.

[5] = target: human Class I PI3 kinase γ (Homo sapiens (Human), UniProt P48736); test: PI3-Kinase Promega ADP-Glo Max assay, γ isoform; assay type: biochemical; settings: 40 nM kinase, 3 mM ATP, 500 uM diC8-PtdInsP; read-out: Promega γ PI3K IC50
Sequence of human Class I PI3 kinase γ (P48736 whole entry, canonical isoform): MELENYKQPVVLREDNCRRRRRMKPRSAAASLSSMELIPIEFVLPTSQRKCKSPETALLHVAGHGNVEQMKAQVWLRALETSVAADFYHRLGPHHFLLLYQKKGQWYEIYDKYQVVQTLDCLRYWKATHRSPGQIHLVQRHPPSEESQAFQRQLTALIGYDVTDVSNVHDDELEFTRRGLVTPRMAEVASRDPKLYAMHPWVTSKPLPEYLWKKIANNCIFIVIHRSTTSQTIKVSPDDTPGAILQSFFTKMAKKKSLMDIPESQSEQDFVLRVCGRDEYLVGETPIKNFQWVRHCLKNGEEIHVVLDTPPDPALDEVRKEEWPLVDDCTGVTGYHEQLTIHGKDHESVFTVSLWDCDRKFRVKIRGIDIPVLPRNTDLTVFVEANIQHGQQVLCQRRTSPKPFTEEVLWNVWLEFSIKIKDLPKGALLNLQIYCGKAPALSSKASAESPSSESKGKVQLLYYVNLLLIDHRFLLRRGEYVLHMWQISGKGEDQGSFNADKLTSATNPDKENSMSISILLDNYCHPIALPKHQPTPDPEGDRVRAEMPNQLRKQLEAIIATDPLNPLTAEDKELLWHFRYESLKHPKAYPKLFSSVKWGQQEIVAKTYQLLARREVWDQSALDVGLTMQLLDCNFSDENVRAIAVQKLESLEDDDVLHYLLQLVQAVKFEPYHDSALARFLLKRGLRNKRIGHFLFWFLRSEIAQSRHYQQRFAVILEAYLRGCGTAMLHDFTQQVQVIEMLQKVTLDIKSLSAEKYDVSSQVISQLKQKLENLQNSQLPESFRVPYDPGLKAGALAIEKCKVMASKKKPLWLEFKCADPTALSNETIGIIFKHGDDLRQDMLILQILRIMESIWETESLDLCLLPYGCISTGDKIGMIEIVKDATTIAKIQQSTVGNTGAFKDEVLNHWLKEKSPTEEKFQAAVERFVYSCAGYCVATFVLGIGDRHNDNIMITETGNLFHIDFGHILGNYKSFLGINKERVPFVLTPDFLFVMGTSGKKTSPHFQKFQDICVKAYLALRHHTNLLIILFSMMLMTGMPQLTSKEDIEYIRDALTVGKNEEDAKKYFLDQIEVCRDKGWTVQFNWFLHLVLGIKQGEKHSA
Protocol: Promega ADP-Glo Max assay kit (Cat. No. V7002) was utilized to determine IC50 values for α, β, δ and γ isoforms of human Class I PI3 kinases (Millipore). Samples of kinase (20 nM α or δ, 40 nM β or γ isoform) were incubated with compound for 15 minutes at room temperature in reaction buffer (15 mM HEPES pH 7.4, 20 mM NaCl, 1 mM EGTA, 0.02% Tween 20, 10 mM MgCl2, 0.2 mg/mL bovine-γ-globulins) followed by addition of ATP/diC8-PtdInsP mixture to give final concentrations of 3 mM ATP and 500 uM diC8-PtdInsP. Reactions were incubated at room temperature for 2 hours followed by addition of 25 uL of stop solution. After a 40-minute incubation at room temperature, 50 uL of Promega detection mix was added followed by incubation for 1 hour at room temperature. Plates were then read on Envision plate reader in luminescence mode. Data was converted to % inhibition using the following equation below:
[formula] where S is the sample luminescence, Pos is a positive control without added PI3K, Neg is the negative control without added compound. Data was then plotted as % inhibition vs compound concentration.
Certain compounds provided herein were tested in PI3-Kinase Promega Assay using procedures as described above to determine IC50 values for α, β, δ and/or γ isoforms.

[6] = target: human Class I PI3 kinase α (Homo sapiens (Human), UniProt P42336); test: PI3-Kinase Promega ADP-Glo Max assay, α isoform; assay type: biochemical; settings: 20 nM kinase, 3 mM ATP, 500 uM diC8-PtdInsP; read-out: Promega α PI3K IC50
Sequence of human Class I PI3 kinase α (P42336 whole entry, canonical isoform): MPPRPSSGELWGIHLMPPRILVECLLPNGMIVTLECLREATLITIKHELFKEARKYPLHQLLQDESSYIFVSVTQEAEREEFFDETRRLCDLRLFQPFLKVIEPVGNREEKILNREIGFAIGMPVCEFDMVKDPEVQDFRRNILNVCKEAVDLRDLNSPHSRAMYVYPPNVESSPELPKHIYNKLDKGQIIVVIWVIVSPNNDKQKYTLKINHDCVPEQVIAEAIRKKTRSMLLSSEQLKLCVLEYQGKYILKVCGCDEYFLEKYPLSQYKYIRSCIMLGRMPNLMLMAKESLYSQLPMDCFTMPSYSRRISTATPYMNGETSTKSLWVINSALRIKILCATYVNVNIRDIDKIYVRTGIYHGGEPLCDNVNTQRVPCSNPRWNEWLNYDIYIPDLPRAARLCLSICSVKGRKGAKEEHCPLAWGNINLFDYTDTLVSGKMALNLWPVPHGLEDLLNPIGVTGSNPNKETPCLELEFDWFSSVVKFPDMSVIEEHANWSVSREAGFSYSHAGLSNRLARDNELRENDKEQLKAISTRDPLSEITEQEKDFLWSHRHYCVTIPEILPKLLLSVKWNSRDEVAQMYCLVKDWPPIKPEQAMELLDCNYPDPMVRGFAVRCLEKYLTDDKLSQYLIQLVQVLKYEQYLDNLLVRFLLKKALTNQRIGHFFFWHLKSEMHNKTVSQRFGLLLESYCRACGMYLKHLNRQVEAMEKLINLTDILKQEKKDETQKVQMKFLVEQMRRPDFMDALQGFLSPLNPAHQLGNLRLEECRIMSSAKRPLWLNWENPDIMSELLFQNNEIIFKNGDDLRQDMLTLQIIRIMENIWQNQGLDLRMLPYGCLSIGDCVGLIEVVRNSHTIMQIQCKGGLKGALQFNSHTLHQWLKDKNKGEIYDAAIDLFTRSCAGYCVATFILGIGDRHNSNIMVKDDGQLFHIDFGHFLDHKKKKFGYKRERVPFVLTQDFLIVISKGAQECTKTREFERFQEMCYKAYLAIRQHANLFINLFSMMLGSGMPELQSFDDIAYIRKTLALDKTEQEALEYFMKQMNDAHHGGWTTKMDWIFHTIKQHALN
Sequence of human Class I PI3 kinase α (P27986 whole entry partner, canonical isoform): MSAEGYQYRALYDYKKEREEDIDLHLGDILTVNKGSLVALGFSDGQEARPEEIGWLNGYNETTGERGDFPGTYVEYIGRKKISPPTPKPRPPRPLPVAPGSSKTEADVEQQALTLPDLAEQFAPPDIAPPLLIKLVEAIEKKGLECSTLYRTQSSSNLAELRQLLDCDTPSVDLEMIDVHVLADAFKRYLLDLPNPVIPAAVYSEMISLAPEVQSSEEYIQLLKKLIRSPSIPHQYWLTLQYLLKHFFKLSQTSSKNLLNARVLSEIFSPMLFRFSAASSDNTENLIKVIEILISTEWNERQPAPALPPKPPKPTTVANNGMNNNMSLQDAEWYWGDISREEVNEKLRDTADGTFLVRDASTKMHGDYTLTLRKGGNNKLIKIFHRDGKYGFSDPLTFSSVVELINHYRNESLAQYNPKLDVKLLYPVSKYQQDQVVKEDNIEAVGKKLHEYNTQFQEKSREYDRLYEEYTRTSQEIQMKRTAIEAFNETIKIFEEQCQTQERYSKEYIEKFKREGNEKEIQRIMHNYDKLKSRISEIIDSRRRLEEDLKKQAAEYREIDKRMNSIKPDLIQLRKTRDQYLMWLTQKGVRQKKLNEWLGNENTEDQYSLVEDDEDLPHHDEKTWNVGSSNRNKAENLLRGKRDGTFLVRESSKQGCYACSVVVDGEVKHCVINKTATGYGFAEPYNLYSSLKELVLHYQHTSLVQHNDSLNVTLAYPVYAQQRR

Sequence of human Class I PI3 kinase β (P42338 whole entry, looked up, canonical isoform): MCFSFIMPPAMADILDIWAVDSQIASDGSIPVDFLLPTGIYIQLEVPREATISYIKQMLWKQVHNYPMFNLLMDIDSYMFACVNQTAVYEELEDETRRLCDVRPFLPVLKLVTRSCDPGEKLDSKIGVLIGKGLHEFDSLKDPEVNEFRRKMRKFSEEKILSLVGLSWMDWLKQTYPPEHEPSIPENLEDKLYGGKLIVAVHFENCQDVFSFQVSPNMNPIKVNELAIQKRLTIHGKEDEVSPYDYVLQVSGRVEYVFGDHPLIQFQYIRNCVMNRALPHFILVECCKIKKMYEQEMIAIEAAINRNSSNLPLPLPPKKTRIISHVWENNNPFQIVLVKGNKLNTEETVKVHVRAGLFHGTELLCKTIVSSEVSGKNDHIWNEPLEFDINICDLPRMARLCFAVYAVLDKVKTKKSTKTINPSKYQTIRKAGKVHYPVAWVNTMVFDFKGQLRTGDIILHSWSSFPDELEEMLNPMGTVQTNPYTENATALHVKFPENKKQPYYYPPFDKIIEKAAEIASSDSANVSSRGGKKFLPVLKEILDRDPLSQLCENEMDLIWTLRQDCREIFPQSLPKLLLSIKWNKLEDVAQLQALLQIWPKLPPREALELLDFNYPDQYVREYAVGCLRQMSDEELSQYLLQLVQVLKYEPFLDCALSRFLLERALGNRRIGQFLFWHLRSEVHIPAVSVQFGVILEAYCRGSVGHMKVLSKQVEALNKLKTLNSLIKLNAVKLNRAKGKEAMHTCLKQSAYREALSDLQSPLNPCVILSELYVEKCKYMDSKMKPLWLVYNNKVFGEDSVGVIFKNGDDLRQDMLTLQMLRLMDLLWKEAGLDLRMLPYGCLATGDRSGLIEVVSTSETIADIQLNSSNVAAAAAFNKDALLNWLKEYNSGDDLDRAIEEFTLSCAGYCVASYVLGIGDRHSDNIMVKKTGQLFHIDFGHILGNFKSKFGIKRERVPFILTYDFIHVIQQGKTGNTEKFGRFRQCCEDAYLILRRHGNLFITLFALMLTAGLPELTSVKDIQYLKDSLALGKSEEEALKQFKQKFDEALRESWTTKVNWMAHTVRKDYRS
Sequence of human Class I PI3 kinase β (P27986 whole entry partner, looked up, canonical isoform): as the sequence (P27986 whole entry partner, canonical isoform) above

IC50 [1]	IC50 [2]	IC50 [3]	IC50 [4]	IC50 [5]	IC50 [6]	Structure (SMILES)
1000 to 10000 nM	1 to 10 nM	100 to 500 nM	1 to 10 nM	10 to 100 nM	1000 to 10000 nM	C[C@H](NC(=O)c1c(N)ncn2ccnc12)c1cc2cccc(Cl)c2c(=O)n1-c1ccccc1 [Compound 43]
1000 to 10000 nM	10 to 100 nM	1000 to 10000 nM	100 to 500 nM	1000 to 10000 nM	1000 to 10000 nM	C[C@H](NC(=O)c1c(N)nn2cccnc12)c1cc2cccc(Cl)c2c(=O)n1CCc1ccccc1 [Compound 15]
500 to 1000 nM	100 to 500 nM	500 to 1000 nM	10 to 100 nM	100 to 500 nM	1000 to 10000 nM	COc1ccccc1-n1c([C@H](C)NC(=O)c2c(N)nn3cccnc23)cc2cccc(Cl)c2c1=O [Compound 85]
500 to 1000 nM	10 to 100 nM	1000 to 10000 nM	10 to 100 nM	1000 to 10000 nM	1000 to 10000 nM	C[C@H](NC(=O)c1c(N)nn2cccnc12)c1cc2cccc(Cl)c2c(=O)n1C1CCC1 [Compound 71]
100 to 500 nM	10 to 100 nM	1000 to 10000 nM	10 to 100 nM	10 to 100 nM	1000 to 10000 nM	C[C@H](NC(=O)c1c(N)nn2cccnc12)c1cc2cccc(Cl)c2c(=O)n1CCS(N)(=O)=O [Compound 19]
1000 to 10000 nM	10 to 100 nM	500 to 1000 nM	10 to 100 nM	100 to 500 nM	1000 to 10000 nM	C[C@H](NC(=O)c1c(N)nn2cccnc12)c1nc2ccccc2c(=O)n1-c1ccccc1 [Compound 95]
100 to 500 nM	10 to 100 nM	1000 to 10000 nM	100 to 500 nM	1000 to 10000 nM	1000 to 10000 nM	C[C@H](NC(=O)c1c(N)nn2cccnc12)c1cc2cccc(Cl)c2c(=O)n1C1CC(NS(C)(=O)=O)C1 (stereo partly drawn) [Compound 72]
1000 to 10000 nM	100 to 500 nM	500 to 1000 nM	10 to 100 nM	500 to 1000 nM	1000 to 10000 nM	CC(=O)Cc1cccc2nc([C@H](C)NC(=O)c3c(N)nn4cccnc34)n(-c3ccccc3)c(=O)c12 [Compound 89]
500 to 1000 nM	100 to 500 nM	1000 to 10000 nM	1000 to 10000 nM	1000 to 10000 nM	1000 to 10000 nM	C[C@H](NC(=O)c1c(N)nn2cccnc12)c1cc2cccc(Cl)c2c(=O)n1-c1ccc(NS(C)(=O)=O)cc1 [Compound 81]
100 to 500 nM	10 to 100 nM	500 to 1000 nM	1 to 10 nM	100 to 500 nM	1000 to 10000 nM	Cc1ccccc1-n1c([C@H](C)NC(=O)c2c(N)nn3cccnc23)cc2cccc(Cl)c2c1=O [Compound 73]
1000 to 10000 nM	100 to 500 nM	1000 to 10000 nM	100 to 500 nM	1000 to 10000 nM	1000 to 10000 nM	C[C@H](NC(=O)c1c(N)nn2cccnc12)c1oc2ccc(F)cc2c(=O)c1-c1ccccc1 [Compound 96]
1 to 10 nM	1 to 10 nM	100 to 500 nM	10 to 100 nM	10 to 100 nM	1000 to 10000 nM	C[C@H](NC(=O)c1c(N)nn2cccnc12)c1cc2cccc(Cl)c2c(=O)n1-c1ccc(O)cc1 [Compound 70]
1000 to 10000 nM	10 to 100 nM	1000 to 10000 nM	1 to 10 nM	10 to 100 nM	1000 to 10000 nM	C[C@H](NC(=O)c1c(N)nn2cccnc12)c1nc2cccc(Cl)c2c(=O)n1-c1ccc(F)cc1 [Compound 45]
